Active and inactive are the calls of the source. The rule behind the calls is not given here.
Target: Crimean-Congo hemorrhagic fever virus L protein viral ovarian tumor (vOTU) protease domain
Test: CCHFV vOTU protease inhibitor potency, dose response, biochemical, fluorescence, Pep-AMC substrate (AID 720578)
Conditions: recombinant CCHFV vOTU, Pep-AMC fluorescence cleavage

Row | SMILES | IC50
1 | CCOC(=O)c1cc2c(=Cc3ccc(N(C)C)cc3)c3ccccc3n2[n+]1C | 7.38 µM
2 | CCOC(=O)c1c(C)[nH]c2c1-c1ccccc1C(=O)C2=O | 0.323 µM
3 | Cc1cccc(NC(=O)c2sc3nc4c(c(-c5cccs5)c3c2N)CN(C)CC4)c1 | inactive
4 | O=C(OCc1nnc(-c2ccccc2)o1)c1ccc([N+](=O)[O-])s1 | 7.52 µM
5 | CCCCn1c(NS(=O)(=O)c2ccccc2)c(S(=O)(=O)c2ccc(C)cc2)c2nc3ccccc3nc21 | > 115 µM (inactive)
6 | COC1=C(Br)C(=O)c2nc(C)ccc2C1=O | 9.43 µM
7 | O=C1C(=O)c2cccnc2-c2ncccc21 | 5.38 µM
8 | O=C1C(Nc2ccccc2)=C(N2CCCCC2)C(=O)c2ccccc21 | 4.54 µM
9 | CN1CCN(C2=C(Cl)C(=O)c3ccccc3C2=O)CC1 | 0.276 µM
10 | COc1ccc(N2C(=O)[C@@H]3[C@H](C2=O)[C@H]2c4ccccc4C=CN2[C@@H]3C(C)=O)cc1 | inactive
11 | CC1COCC(C)N1C1=C(Cl)C(=O)c2ccccc2C1=O (stereo not given) | 5.07 µM
12 | O=C(COC(=O)c1ccc([N+](=O)[O-])s1)NCc1ccc(F)cc1 | 8.08 µM
13 | O=C(O)CSc1cc(NS(=O)(=O)c2cccc([N+](=O)[O-])c2)c2ccccc2c1O | 2.44 µM
14 | O=C(O)CSc1cc(NS(=O)(=O)c2ccc(Br)cc2)c2ccccc2c1O | 4.45 µM
15 | O=C1C=C(N2CC2)c2ccccc2C1=O | 2.73 µM
16 | O=C1C=C(N2CCOCC2)c2ccccc2C1=O | 4.21 µM
17 | COc1ccc(Cc2nccc3cc(OC)c(OC)cc23)cc1OC | inactive
18 | COc1ccc(C(C[N+](=O)[O-])c2c(C)[nH]n(-c3ccccc3)c2=O)cc1 (stereo not given) | inactive
19 | COc1ccccc1NC(=O)COC(=O)c1ccc([N+](=O)[O-])s1 | 9.94 µM
20 | Nc1ccc(N2CCCCC2)c2nonc12 | inactive
21 | O=C1C(SCCO)=C(SCCO)C(=O)c2ccccc21 | 2.15 µM
22 | CN(C)c1ccc2nc3ccc(=O)cc-3sc2c1 | inactive
23 | CCc1ccc(S(=O)(=O)Nc2cc(SCC(=O)O)c(O)c3ccccc23)cc1 | 7.64 µM
24 | S=C(Nc1ccc2nsnc2c1)N1CCCCCC1 | inactive
25 | CC(=O)N(/N=C1\Sc2ccccc2C1=O)c1ccccc1C | inactive

From PubChem BioAssay AID720578 (The Scripps Research Institute Molecular Screening Center, 2013)
